Measured values reported in the supplement of paper PMC10307832.

Tests used:
Experiment in all cases: relative viability (nuclei count vs DMSO), 5 days (fraction); higher = more cells survive
[1] = compound: CC1=CC=C(C=C1)C(=O)CN2C3=C(CCCC3)SC2=N [Pifithrin_alpha] + CC(C)C[C@H](NC(=O)[C@H](Cc1ccccc1)NC(=O)c1cnccn1)B(O)O [Bortezomib] (partner 0.002 µM)
How it was run: (§1)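 After 5 days of treatment, lung cancer cells in 1536-well plates were fixed and stained in a single step (final 0.05% Triton X-100, 1% formaldehyde, 1 ug/ml Hoechst) and their nuclei counted on 4× images. Treatment had been applied by pin tool the day after seeding as one drug alone or as a fixed anchor-drug dose with five library-drug doses (not always all listed) in √10 steps. Relative viability is the nuclei count of treated wells divided by that of vehicle wells, and values are medians of duplicate plates.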

Axitinib + Bortezomib = compound: CNC(=O)c1ccccc1Sc1ccc2c(/C=C/c3ccccn3)n[nH]c2c1 [Axitinib] + CC(C)C[C@H](NC(=O)[C@H](Cc1ccccc1)NC(=O)c1cnccn1)B(O)O [Bortezomib] (partner 0.002 µM)
How it was run: as §1

Axitinib + Crizotinib = compound: CNC(=O)c1ccccc1Sc1ccc2c(/C=C/c3ccccn3)n[nH]c2c1 [Axitinib] + C[C@@H](Oc1cc(-c2cnn(C3CCNCC3)c2)cnc1N)c1c(Cl)ccc(F)c1Cl [Crizotinib] (partner 1 µM)
How it was run: as §1

Axitinib + Dasatinib = compound: CNC(=O)c1ccccc1Sc1ccc2c(/C=C/c3ccccn3)n[nH]c2c1 [Axitinib] + Cc1nc(Nc2ncc(C(=O)Nc3c(C)cccc3Cl)s2)cc(N2CCN(CCO)CC2)n1 [Dasatinib] (partner 0.075 µM)
How it was run: as §1

| Cell Line | relative viability ([1]; first compound 1 µM) | relative viability ([1]; first compound 3.162 µM) | relative viability ([1]; first compound 10 µM) | relative viability ([1]; first compound 31.62 µM) | relative viability ([1]; first compound 100 µM) | relative viability (Axitinib + Bortezomib; first compound 0.005 µM) | relative viability (Axitinib + Bortezomib; first compound 0.01581 µM) | relative viability (Axitinib + Bortezomib; first compound 0.05 µM) | relative viability (Axitinib + Bortezomib; first compound 0.1581 µM) | relative viability (Axitinib + Bortezomib; first compound 0.5 µM) | relative viability (Axitinib + Crizotinib; first compound 0.005 µM) | relative viability (Axitinib + Crizotinib; first compound 0.01581 µM) | relative viability (Axitinib + Crizotinib; first compound 0.05 µM) | relative viability (Axitinib + Crizotinib; first compound 0.1581 µM) | relative viability (Axitinib + Crizotinib; first compound 0.5 µM) | relative viability (Axitinib + Dasatinib; first compound 0.005 µM) | relative viability (Axitinib + Dasatinib; first compound 0.01581 µM) | relative viability (Axitinib + Dasatinib; first compound 0.05 µM) | relative viability (Axitinib + Dasatinib; first compound 0.1581 µM) | relative viability (Axitinib + Dasatinib; first compound 0.5 µM) |
| --- | --- | --- | --- | --- | --- | --- | --- | --- | --- | --- | --- | --- | --- | --- | --- | --- | --- | --- | --- | --- |
| IA-LM | 0.984 | 0.415 | 0.281 | 0.33 | 0.339 | 1.17 | 0.775 | 0.899 | 0.846 | 0.728 | 0.95 | 0.737 | 1.05 | 1.04 | 0.982 |  |  |  |  |  |
| NCI-H838 | 0.786 | 0.628 | 0.599 | 0.626 | 0.62 | 0.961 | 1.01 | 0.902 | 0.726 | 0.965 | 0.852 | 0.945 | 0.874 | 0.886 | 0.953 | 0.288 | 0.352 | 0.342 | 0.282 | 0.262 |
| COR-L 105 | 0.725 | 0.615 | 0.856 | 0.629 | 0.632 | 0.748 | 0.868 | 0.798 | 0.758 | 0.92 | 0.841 | 0.965 | 0.86 | 0.776 | 0.968 | 0.318 | 0.327 | 0.417 | 0.303 | 0.415 |
| NCI-H358 |  |  |  |  |  |  |  |  |  |  | 0.401 | 0.636 | 0.625 | 0.549 | 0.596 | 0.116 | 0.153 | 0.155 | 0.142 | 0.146 |
| SK-MES-1 |  |  |  |  |  |  |  |  |  |  | 1.06 | 0.974 | 1.07 | 1.02 | 1.11 | 0.42 | 0.435 | 0.446 | 0.382 | 0.622 |
| LCLC-103H | 1.12 | 1.08 | 0.902 | 0.831 | 1.25 | 1.07 | 1.07 | 1.18 | 1.03 | 1.07 | 1.11 | 1.13 | 1 | 1.1 | 1.06 | 0.524 | 0.516 | 0.483 | 0.402 | 0.364 |
| HARA | 1.25 | 1.13 | 1.2 | 0.878 | 1.26 | 1.09 | 1.07 | 1.1 | 1.13 | 1.14 | 1.07 | 1.07 | 1.1 | 0.978 | 1.14 | 0.211 | 0.2 | 0.293 | 0.246 | 0.253 |
| ABC-1 | 0.322 | 0.351 | 0.328 | 0.26 | 0.298 | 0.34 | 0.307 | 0.315 | 0.254 | 0.289 | 1.21 | 1.28 | 1.2 | 1.13 | 1.28 | 0.738 | 0.686 | 0.486 |  | 0.638 |
| NCI-H727 | 0.786 | 0.958 | 0.696 | 0.446 | 0.793 | 1.1 | 0.854 | 1 | 0.868 | 0.795 | 0.823 | 0.693 | 0.872 | 0.793 | 0.985 | 0.403 | 0.371 | 0.436 | 0.465 | 0.347 |
